Tested on: 782815-120-R-J1-PDC complex spheroid viability
Experiment: Anticancer human tumor 782815-120-R-J1-PDC patient-derived colon adenocarcinoma cell line growth inhibition [RAS]
Settings: for IC50: curve of first compound; for viability, T/C: stronger effect = lower value
How it was run: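 Agents were tested in combination matrices in half-log decrements from a top concentration at or near clinical Cmax (10 microM if undetermined). Targets were multi-cell spheroids of tumour lines plus HUVEC and MSC stromal cells.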

[1] = second compound 0.0316 µM, first compound 0.00316 µM
[2] = second compound 0.0316 µM, first compound 0.01 µM
[3] = second compound 0.0316 µM, first compound 0.0316 µM
[4] = second compound 0.0316 µM, first compound 0.1 µM
[5] = second compound 0.0316 µM, first compound 0.316 µM
[6] = second compound 0.0316 µM, first compound 1 µM
[7] = second compound 0.1 µM, first compound 0.00316 µM
[8] = second compound 0.1 µM, first compound 0.01 µM
[9] = second compound 0.1 µM, first compound 0.0316 µM
[10] = second compound 0.1 µM, first compound 0.1 µM
[11] = second compound 0.1 µM, first compound 0.316 µM
[12] = second compound 0.1 µM, first compound 1 µM
[13] = second compound 0.316 µM, first compound 0.00316 µM
[14] = second compound 0.316 µM, first compound 0.01 µM
[15] = second compound 0.316 µM, first compound 0.0316 µM
[16] = second compound 0.316 µM, first compound 0.1 µM
[17] = second compound 0.316 µM, first compound 0.316 µM
[18] = second compound 0.316 µM, first compound 1 µM
[19] = second compound 1 µM, first compound 0.00316 µM
[20] = second compound 1 µM, first compound 0.01 µM
[21] = second compound 1 µM, first compound 0.0316 µM
[22] = second compound 1 µM, first compound 0.1 µM
[23] = second compound 1 µM, first compound 0.316 µM
[24] = second compound 1 µM, first compound 1 µM
[25] = second compound 3.16 µM, first compound 0.00316 µM
[26] = second compound 3.16 µM, first compound 0.01 µM
[27] = second compound 3.16 µM, first compound 0.0316 µM
[28] = second compound 3.16 µM, first compound 0.1 µM
[29] = second compound 3.16 µM, first compound 0.316 µM
[30] = second compound 3.16 µM, first compound 1 µM
[31] = second compound 10 µM, first compound 0.00316 µM
[32] = second compound 10 µM, first compound 0.01 µM
[33] = second compound 10 µM, first compound 0.0316 µM
[34] = second compound 10 µM, first compound 0.1 µM
[35] = second compound 10 µM, first compound 0.316 µM
[36] = second compound 10 µM, first compound 1 µM
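Also: spheroids exposed to compounds for 7 days before reading.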
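For viability, T/C in this document: 100% = DMSO vehicle control viability.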

## C=CC(=O)N1CCN(c2nc(OCC3CCCN3C)nc3c(F)c(-c4nc(N)cc(C)c4C(F)(F)F)c(Cl)cc23)C(C)C1 (stereo not drawn) + C#Cc1c(F)ccc2cc(O)cc(-c3ncc4c(N5CC6CCC(C5)N6)nc(OCC56CCCN5CC(F)C6)nc4c3F)c12
Second compound 0.0316 µM
  IC50: > 1000 nM
Second compound 0.1 µM
  IC50: > 1000 nM
Second compound 0.316 µM
  IC50: > 1000 nM
Second compound 1 µM
  IC50: > 1000 nM
Second compound 3.16 µM
  IC50: > 1000 nM
Second compound 10 µM
  IC50: > 1000 nM
[1]
  viability, T/C: 98.9%
[2]
  viability, T/C: 86.9%
[3]
  viability, T/C: 103%
[4]
  viability, T/C: 92.5%
[5]
  viability, T/C: 96.9%
[6]
  viability, T/C: 97%
[7]
  viability, T/C: 97.3%
[8]
  viability, T/C: 93.1%
[9]
  viability, T/C: 97.5%
[10]
  viability, T/C: 94%
[11]
  viability, T/C: 97%
[12]
  viability, T/C: 101%
[13]
  viability, T/C: 92.6%
[14]
  viability, T/C: 94.7%
[15]
  viability, T/C: 89.2%
[16]
  viability, T/C: 91.8%
[17]
  viability, T/C: 98.4%
[18]
  viability, T/C: 84.4%
[19]
  viability, T/C: 95.5%
[20]
  viability, T/C: 94.6%
[21]
  viability, T/C: 94%
[22]
  viability, T/C: 99.2%
[23]
  viability, T/C: 101%
[24]
  viability, T/C: 98.3%
[25]
  viability, T/C: 97.3%
[26]
  viability, T/C: 91.7%
[27]
  viability, T/C: 95.9%
[28]
  viability, T/C: 105%
[29]
  viability, T/C: 101%
[30]
  viability, T/C: 90.5%
[31]
  viability, T/C: 106%
[32]
  viability, T/C: 104%
[33]
  viability, T/C: 93.6%
[34]
  viability, T/C: 99.6%
[35]
  viability, T/C: 104%
[36]
  viability, T/C: 91.1%

## CC(=O)OC12COC1CC(O)C1(C)C(=O)C(O)C3=C(C)C(OC(=O)C(O)C(NC(=O)OC(C)(C)C)c4ccccc4)CC(O)(C(OC(=O)c4ccccc4)C21)C3(C)C (stereo not drawn) + C#Cc1c(F)ccc2cc(O)cc(-c3ncc4c(N5CC6CCC(C5)N6)nc(OCC56CCCN5CC(F)C6)nc4c3F)c12
Second compound 0.0316 µM
  IC50: < 31.6 nM
Second compound 0.1 µM
  IC50: < 31.6 nM
Second compound 0.316 µM
  IC50: < 31.6 nM
Second compound 1 µM
  IC50: < 31.6 nM
Second compound 3.16 µM
  IC50: < 31.6 nM
Second compound 10 µM
  IC50: < 31.6 nM
[3]
  viability, T/C: 34.4%
[4]
  viability, T/C: 32.9%
[5]
  viability, T/C: 30.1%
[6]
  viability, T/C: 24.4%
Second compound 0.0316 µM, first compound 3.16 µM
  viability, T/C: 30.8%
Second compound 0.0316 µM, first compound 10 µM
  viability, T/C: 34.9%
[9]
  viability, T/C: 39.7%
[10]
  viability, T/C: 34.5%
[11]
  viability, T/C: 29.2%
[12]
  viability, T/C: 21.6%
Second compound 0.1 µM, first compound 3.16 µM
  viability, T/C: 32.2%
Second compound 0.1 µM, first compound 10 µM
  viability, T/C: 31%
[15]
  viability, T/C: 38.8%
[16]
  viability, T/C: 33.4%
[17]
  viability, T/C: 25.9%
[18]
  viability, T/C: 28.6%
Second compound 0.316 µM, first compound 3.16 µM
  viability, T/C: 31.9%
Second compound 0.316 µM, first compound 10 µM
  viability, T/C: 29.5%
[21]
  viability, T/C: 36.5%
[22]
  viability, T/C: 32.3%
[23]
  viability, T/C: 30.5%
[24]
  viability, T/C: 27.2%
Second compound 1 µM, first compound 3.16 µM
  viability, T/C: 33.7%
Second compound 1 µM, first compound 10 µM
  viability, T/C: 33.4%
[27]
  viability, T/C: 35.4%
[28]
  viability, T/C: 34.4%
[29]
  viability, T/C: 35.5%
[30]
  viability, T/C: 27.5%
Second compound 3.16 µM, first compound 3.16 µM
  viability, T/C: 28.3%
Second compound 3.16 µM, first compound 10 µM
  viability, T/C: 34.2%
[33]
  viability, T/C: 35.7%
[34]
  viability, T/C: 29.2%
[35]
  viability, T/C: 26.8%
[36]
  viability, T/C: 36%
Second compound 10 µM, first compound 3.16 µM
  viability, T/C: 29.9%
Second compound 10 µM, first compound 10 µM
  viability, T/C: 32.8%

## CCc1c2c(nc3ccc(O)cc13)-c1cc3c(c(=O)n1C2)COC(=O)[C@]3(O)CC + C#Cc1c(F)ccc2cc(O)cc(-c3ncc4c(N5CC6CCC(C5)N6)nc(OCC56CCCN5CC(F)C6)nc4c3F)c12
Second compound 0.0316 µM
  IC50: 4.66 nM
Second compound 0.1 µM
  IC50: 4.39 nM
Second compound 0.316 µM
  IC50: 4.86 nM
Second compound 1 µM
  IC50: 4.76 nM
Second compound 3.16 µM
  IC50: 4.2 nM
Second compound 10 µM
  IC50: 4.39 nM
Second compound 0.0316 µM, first compound 0.000949 µM
  viability, T/C: 94.9%
Second compound 0.0316 µM, first compound 0.003 µM
  viability, T/C: 67.9%
Second compound 0.0316 µM, first compound 0.00949 µM
  viability, T/C: 20.8%
Second compound 0.0316 µM, first compound 0.03 µM
  viability, T/C: 9.58%
Second compound 0.0316 µM, first compound 0.0949 µM
  viability, T/C: 4.66%
Second compound 0.0316 µM, first compound 0.3 µM
  viability, T/C: 1.46%
Second compound 0.1 µM, first compound 0.000949 µM
  viability, T/C: 98.9%
Second compound 0.1 µM, first compound 0.003 µM
  viability, T/C: 64%
Second compound 0.1 µM, first compound 0.00949 µM
  viability, T/C: 21.4%
Second compound 0.1 µM, first compound 0.03 µM
  viability, T/C: 10.5%
Second compound 0.1 µM, first compound 0.0949 µM
  viability, T/C: 4.8%
Second compound 0.1 µM, first compound 0.3 µM
  viability, T/C: 1.59%
Second compound 0.316 µM, first compound 0.000949 µM
  viability, T/C: 96.9%
Second compound 0.316 µM, first compound 0.003 µM
  viability, T/C: 69.3%
Second compound 0.316 µM, first compound 0.00949 µM
  viability, T/C: 22.6%
Second compound 0.316 µM, first compound 0.03 µM
  viability, T/C: 10.5%
Second compound 0.316 µM, first compound 0.0949 µM
  viability, T/C: 3.58%
Second compound 0.316 µM, first compound 0.3 µM
  viability, T/C: 1.52%
Second compound 1 µM, first compound 0.000949 µM
  viability, T/C: 99.9%
Second compound 1 µM, first compound 0.003 µM
  viability, T/C: 67.4%
Second compound 1 µM, first compound 0.00949 µM
  viability, T/C: 23.6%
Second compound 1 µM, first compound 0.03 µM
  viability, T/C: 9.52%
Second compound 1 µM, first compound 0.0949 µM
  viability, T/C: 3.42%
Second compound 1 µM, first compound 0.3 µM
  viability, T/C: 1.25%
Second compound 3.16 µM, first compound 0.000949 µM
  viability, T/C: 99.3%
Second compound 3.16 µM, first compound 0.003 µM
  viability, T/C: 61.9%
Second compound 3.16 µM, first compound 0.00949 µM
  viability, T/C: 21%
Second compound 3.16 µM, first compound 0.03 µM
  viability, T/C: 8.73%
Second compound 3.16 µM, first compound 0.0949 µM
  viability, T/C: 3.05%
Second compound 3.16 µM, first compound 0.3 µM
  viability, T/C: 1.2%
Second compound 10 µM, first compound 0.000949 µM
  viability, T/C: 102%
Second compound 10 µM, first compound 0.003 µM
  viability, T/C: 64%
Second compound 10 µM, first compound 0.00949 µM
  viability, T/C: 21%
Second compound 10 µM, first compound 0.03 µM
  viability, T/C: 11.2%
Second compound 10 µM, first compound 0.0949 µM
  viability, T/C: 2.93%
Second compound 10 µM, first compound 0.3 µM
  viability, T/C: 0.95%

## Nc1ccn(C2OC(CO)C(O)C2(F)F)c(=O)n1 (stereo not drawn) + C#Cc1c(F)ccc2cc(O)cc(-c3ncc4c(N5CC6CCC(C5)N6)nc(OCC56CCCN5CC(F)C6)nc4c3F)c12
Second compound 0.0316 µM
  IC50: 94.2 nM
Second compound 0.1 µM
  IC50: 73.9 nM
Second compound 0.316 µM
  IC50: 85.2 nM
Second compound 1 µM
  IC50: 71.4 nM
Second compound 3.16 µM
  IC50: 85.8 nM
Second compound 10 µM
  IC50: 62.7 nM
[1]
  viability, T/C: 103%
[2]
  viability, T/C: 92.8%
[3]
  viability, T/C: 64.8%
[4]
  viability, T/C: 54%
[5]
  viability, T/C: 31.3%
[6]
  viability, T/C: 28.6%
[7]
  viability, T/C: 101%
[8]
  viability, T/C: 91.1%
[9]
  viability, T/C: 62.3%
[10]
  viability, T/C: 47.8%
[11]
  viability, T/C: 29.6%
[12]
  viability, T/C: 26.3%
[13]
  viability, T/C: 97.8%
[14]
  viability, T/C: 92.2%
[15]
  viability, T/C: 58.7%
[16]
  viability, T/C: 50.2%
[17]
  viability, T/C: 37.1%
[18]
  viability, T/C: 25.3%
[19]
  viability, T/C: 97.9%
[20]
  viability, T/C: 81.9%
[21]
  viability, T/C: 60.6%
[22]
  viability, T/C: 43.5%
[23]
  viability, T/C: 38.1%
[24]
  viability, T/C: 26.7%
[25]
  viability, T/C: 96.8%
[26]
  viability, T/C: 89.7%
[27]
  viability, T/C: 63.1%
[28]
  viability, T/C: 49%
[29]
  viability, T/C: 36.2%
[30]
  viability, T/C: 28.1%
[31]
  viability, T/C: 101%
[32]
  viability, T/C: 95.2%
[33]
  viability, T/C: 61.9%
[34]
  viability, T/C: 42%
[35]
  viability, T/C: 35.6%
[36]
  viability, T/C: 27.1%

Reference: PubChem BioAssay AID2060887 (Molecular Pharmacology Branch, DTP, NCI, 2025)
